Measured values: US6358921B1, “Antimicrobial peptide compositions and method” (priority 1996, dated 2002)
Read-outs that look alike come from different tables or passages of the source. Where a SMILES comes first, the peptide text is derived from it. [ ]: non-standard residue; d: D form. Orn = NCCC[C@H](N)C(=O)O

Experiments:
[1] = Displacement of dansyl-polymyxin from LPS; format: binding, P. aeruginosa
Method in brief: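 Peptides titrated into 3 μg/mL P. aeruginosa LPS with 2.5 μM dansyl-polymyxin (~90% site saturation) in 5 mM sodium HEPES, pH 7.0; fluorescence decrease recorded. I50 (50% probe displacement) taken from the x-intercept of a double-reciprocal plot of percent inhibition versus inhibitor concentration.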

P. aeruginosa H188 = format: cell-based, Pseudomonas aeruginosa; conditions: for Antibiotic activity (Table 11, ring analogs): P. aeruginosa H188, unit from Table 10
Method in brief: (§1)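 Antimicrobial activity is measured by a liquid-broth assay in LB at 37 °C overnight, starting from 5×10^5 CFU/mL. Values are minimal inhibitory concentrations, i.e. the lowest concentration that stops growth.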

P. aeruginosa H187 = format: cell-based, Pseudomonas aeruginosa; conditions: for Antibiotic activity (Table 11, ring analogs): P. aeruginosa H187, unit from Table 10
Method in brief: (§2)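 Liquid-broth microdilution: overnight LB cultures at 37 °C, diluted to a final inoculum of 5×10^5 CFU/mL with serial peptide dilutions, incubated overnight at 37 °C. MIC (μg/ml) is the lowest concentration that inhibited growth. Therapeutic index is the concentration giving complete hemolysis at 4 h divided by the MIC.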

[2] = test system: gram positive microorganisms; format: cell-based; conditions: for Antibiotic activity, gram-positive: average activity calculated from Table II
Source text: (§3) The following bacterial strains were utilized: Escherichia coli UB1005 (wt) and its antibiotic supersusceptible derivative DC2 (Clark, 1984); Excherichia coli SC9251 and its polymixin B rasistant mutant pmrA SC9252 (Peterson, et al., 1987) Pseudomonas aeruginosa H187 (wt) (Angus, et al., 1987) and its antibiotic-sensitive derivative H188 (Zimmerman, W, Antimicrob. Agents Chemother. 18: 94-100, 1980); methicillin sensitive Staphylococcus aureus K147 (Kreiswirth, et al., 1983); Staphylococcus aureus SAP0017, a methicillin resistant clinical isolate from Dr. A. Chow (University of British Columia); Bacillus subtilis, an environmental wt lab strain. Enterococcus faecalis are ATCC 29212 cells and Staphylococcus epidermidis was a clinical isolate from Dr. D. Speert (University of British Columbia). Antifungal activity was tested using a clinical lab isolate of Candida albicans. Salmonella typhinurium C57 and C610 (Fields, P.I., et al., Science 243: 1059-1062 (1989) Corynebacterium xerosis was an environmental isolate (University of British Columbia).
(§4) It is now apparent that agar-based assays severely underestimate antifungal activity as well as activity against gram negative microorganisms (Kondejewski, et al., 1996). Consequently, in the studies reported herein, a liquid-broth method was used to measure the antibiotic properties of the peptides. […] Briefly, cells were grown overnight at 37° C. in LB and diluted in the same medium. Serial dilutions of antibiotics were added to the microtitre plates in a volume of 100 μL followed by 10 μL of bacteria to give a final inoculum of 5×10^5 CFU/mL. Plates were incubated at 37° C. overnight and MICs determined as the lowest antibiotic concentration that inhibited growth.
(§5) The results from antimicrobial and hemolytic assays are combined to provide a “Therapeutic Index” (TI) for each peptide with respect to individual microorganisms. As reported herein, the TI is calculated as the hemolytic activity divided by the antimicrobial activity. The TI thus is a measure of specificity of the particular peptide for microbial membranes as opposed to human blood cell membranes. In the present studies, antimicrobial activities are reported as minimum inhibitory concentrations (MIC)—the lowest concentration of peptide (μg/ml) found to inhibit growth of the particular microbe. Hemolytic activity is reported as the concentration of peptide that effected complete lysis of blood cells after four hours. Thus, in the context of the present invention high TI values indicate microbial specificity and relative lack of toxicity.

[3] = test system: gram negative microorganisms; format: cell-based; conditions: average activity calculated from Table II
Source text: as §3, §4, §5

E. coli SC9251 = test: MIC, liquid-broth microtitre dilution; format: cell-based, Escherichia coli; conditions: unit from Table 10
Source text: as §3, §4

E. coli SC9252 = test: MIC, liquid-broth microtitre dilution; format: cell-based, Escherichia coli; conditions: unit from Table 10
Source text: as §3, §4

E. coli UB1005 = format: cell-based, Escherichia coli; conditions: for Antibiotic activity (Table 11, ring analogs): E. coli UB1005, unit from Table 10
Method in brief: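 Liquid-broth rather than agar method. Organisms: clinical isolates (C. albicans, S. epidermidis), environmental C. xerosis, wild-type E. coli UB1005.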

human erythrocytes = test: Hemolytic activity; format: cell-based
Experimental: Serial dilutions of the peptides in saline were prepared in round bottom microtitre plates using 100 μL volumes. Red blood cells were diluted with saline to 1/25 packed volume of cells and 50 μL added to each well. Plates were incubated with rocking at 37° C., and the concentration required for complete lysis determined visually after 4 h.

E. coli DC2 = format: cell-based, Escherichia coli; conditions: for Antibiotic activity (Table 11, ring analogs): E. coli DC2, unit from Table 10
Method in brief: as §2

yeast = test: Antibiotic activity, yeast; format: cell-based; conditions: average activity calculated from Table II
Source text: as §3, §4, §5

Acholeplasma laidlawii = format: cell-based
Source text: According to another feature of the invention, GS14, which is apparently an unlikely antibacterial agent, is useful against mycoplasma infection. […] One use of such a compound is inclusion in tissue culture media, where mycoplasma contamination can pose serious problems in industrial applications of cell culture. […] Such concentrations can be determined according to standard methods known in the art.

S. typhinurium C587 = format: cell-based, Salmonella typhinurium
Method in brief: as §1

S. typhinurium C610 = format: cell-based, Salmonella typhinurium
Method in brief: as §1

S. epidermidis = format: cell-based, Staphylococcus epidermidis
Method in brief: as §1

S. aureus K147 = format: cell-based, Staphylococcus aureus
Method in brief: as §2

S. aureus SAP0017 = format: cell-based, Staphylococcus aureus
Method in brief: as §2

E. faecalis = format: cell-based, Enterococcus faecalis
Method in brief: as §1

B. subtilis = format: cell-based, Bacillus subtilis
Method in brief: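 Liquid-broth microdilution: overnight LB cultures diluted and added to serial peptide dilutions at final 5×10^5 CFU/mL, incubated overnight at 37 °C. MIC is the lowest concentration inhibiting growth; C. albicans a clinical isolate, S. epidermidis clinical, C. xerosis environmental.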

C. xeroses = format: cell-based, Corynebacterium xerosis
Method in brief: as §1

C. Albicans = format: cell-based, Candida albicans
Method in brief: as §1

[4] = Table 10, read-out: LPS binding activity: peptide concentration to displace 50% of dansyl-polymyxin from LPS

Structure (SMILES) | IC50 [1, 4] | Antibiotic activity (Table 11, ring analogs) (P. aeruginosa H188) | Antibiotic activity (Table 11, ring analogs) (P. aeruginosa H187) | Antibiotic activity, gram-positive [2] | Antibiotic activity, gram-negative [3] | Antibiotic activity (Table 11, ring analogs) (E. coli SC9251) | Antibiotic activity (Table 11, ring analogs) (E. coli SC9252) | Antibiotic activity (Table 11, ring analogs) (E. coli UB1005) | Hemolytic activity (human erythrocytes) | Antibiotic activity (Table 11, ring analogs) (E. coli DC2) | Antibiotic activity, yeast (yeast) | other results
CC(C)C[C@@H]1NC(=O)[C@H](CCCN)NC(=O)[C@H](CC(C)C)NC(=O)[C@@H]2CCCN2C(=O)[C@@H](Cc2ccccc2)NC(=O)[C@H](CC(C)C)NC(=O)[C@H](CCCN)NC(=O)[C@H](CC(C)C)NC(=O)[C@H](CCCN)NC(=O)[C@@H]2CCCN2C(=O)[C@@H](Cc2ccccc2)NC(=O)[C@H](CCCN)NC1=O [GS12FO/LL, FPLOLOFPOLOL] (cyclo(L[Orn]L[Orn][dF]P[Orn]L[Orn]L[dF]P)) | 44 µM | 8 μg/ml | 63 μg/ml | 42 µg/mL | 18 µg/mL | 8 μg/ml | 9 μg/ml | 16 μg/ml | 170 µg/mL | 5 μg/ml | 16 µg/mL | –
CC(C)C[C@@H]1NC(=O)[C@H](CCCCN)NC(=O)[C@H](C(C)C)NC(=O)[C@@H]2CCCN2C(=O)[C@@H](Cc2ccccc2)NC(=O)[C@H](CC(C)C)NC(=O)[C@H](CCCCN)NC(=O)[C@H](C(C)C)NC(=O)[C@H](CCCCN)NC(=O)[C@@H]2CCCN2C(=O)[C@@H](Cc2ccccc2)NC(=O)[C@H](CCCCN)NC1=O [GS12F] | 127 µM | 8 μg/ml | 38 μg/ml | 110 µg/mL | 16 µg/mL | 11 μg/ml | 14 μg/ml | 17 μg/ml | 400 µg/mL | 9 μg/ml | 13 µg/mL | –
CC(C)C[C@@H]1NC(=O)[C@H](CCCCN)NC(=O)[C@@H]2CCCN2C(=O)[C@@H](Cc2ccc(O)cc2)NC(=O)[C@H](CCCCN)NC(=O)[C@H](C(C)C)NC(=O)[C@H](CCCCN)NC(=O)[C@H](CC(C)C)NC(=O)[C@@H]2CCCN2C(=O)[C@@H](Cc2ccc(O)cc2)NC(=O)[C@H](C(C)C)NC(=O)[C@H](CCCCN)NC1=O [GS12LV] | 33 µM | 10 μg/ml | 58 μg/ml | 240 µg/mL | 25 µg/mL | 22 μg/ml | 25 μg/ml | 21 μg/ml | 92 µg/mL | 14 μg/ml | 50 µg/mL | –
CC(C)C[C@@H]1NC(=O)[C@H](CCCCN)NC(=O)[C@H](C(C)C)NC(=O)[C@@H]2CCCN2C(=O)[C@@H](Cc2ccc(O)cc2)NC(=O)[C@H](CC(C)C)NC(=O)[C@H](CCCCN)NC(=O)[C@H](C(C)C)NC(=O)[C@H](CCCCN)NC(=O)[C@@H]2CCCN2C(=O)[C@@H](Cc2ccc(O)cc2)NC(=O)[C@H](CCCCN)NC1=O [GS12] | 46 µM | 10 μg/ml | 75 μg/ml | 240 µg/mL | 32 µg/mL | 42 μg/ml | 30 μg/ml | 25 μg/ml | 250 µg/mL | 11 μg/ml | 42 µg/mL | Increase in LPS binding activity in comparison to shorter peptides ([1]; addition of two positive charges): approximately 6 fold
CC(C)C[C@@H]1NC(=O)[C@H](CCCCN)NC(=O)[C@H](C(C)C)NC(=O)[C@@H]2CCCN2C(=O)[C@@H](Cc2ccc(O)cc2)NC(=O)[C@H](CC(C)C)NC(=O)[C@H](CCCCN)NC(=O)[C@H](C(C)C)NC(=O)[C@H](CCCCN)NC(=O)[C@H](CC(C)C)NC(=O)[C@@H]2CCCN2C(=O)[C@@H](Cc2ccc(O)cc2)NC(=O)[C@H](C(C)C)NC(=O)[C@H](CCCCN)NC1=O [GS14] | – | 400 μg/ml | 400 μg/ml | – | – | 400 μg/ml | 190 μg/ml | 400 μg/ml | – | 190 μg/ml | – | IC50 ([1]; read-out: LPS binding affinity: peptide concentration to displace 50% of dansyl-polymyxin B from LPS, Tables 1, 4, 7): 3 µM; Minimum Inhibitory Concentration (activity) (P. aeruginosa H188; H188): >200 µg/mL; MIC (Acholeplasma laidlawii): less than 30 μg/ml; Minimum Inhibitory Concentration (activity) (S. typhinurium C587): >200 µg/mL; Minimum Inhibitory Concentration (activity) (S. typhinurium C610): >200 µg/mL; Minimum Inhibitory Concentration (activity) (S. epidermidis): 200 µg/mL; Minimum Inhibitory Concentration (activity) (S. aureus K147): >200 µg/mL; Minimum Inhibitory Concentration (activity) (S. aureus SAP0017): >200 µg/mL; Minimum Inhibitory Concentration (activity) (P. aeruginosa H187; H187): >200 µg/mL; MIC against four of the gram positive microorganisms tested [2]: > 200 µg/mL; Minimum Inhibitory Concentration (activity) (E. faecalis): 1.5 µg/mL; Minimum Inhibitory Concentration (activity) (B. subtilis): >200 µg/mL; Minimum Inhibitory Concentration (activity) (C. xeroses): 9 µg/mL; Minimum Inhibitory Concentration (activity) (E. coli UB1005; UB1005): >200 µg/mL; Minimum Inhibitory Concentration (activity) (C. Albicans): 150 µg/mL; Minimum Inhibitory Concentration (activity) (E. coli DC2; DC2): >200 µg/mL
